Measurements published in patent US9006250B2, “4-amino-6-(heterocyclic)picolinates and 6-amino-2-(heterocyclic)pyrimidine-4-carboxylates and their use as herbicides” (Dow AgroSciences, LLC, priority 2013, dated 2015).

Tested on: not given
Assay: not given
Settings: not given

SMILES | melting point [°C]
COC(=O)c1nc(-c2ccc3nonc3c2C)cc(N)c1Cl [Compound 17] | 182 to 185

Tested on: CYPES: yellow nutsedge (Cyperus esculentus)
Assay: Post-Emergent Test II herbicidal activity
Format: in vivo
Settings: post-emergence, 336 h, 35 g ai/ha, 14 days, read-out: Visual Growth Reduction (%) 14 Days After Application CYPES
Method in brief: (§1)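 Visual injury rating (0 = no injury, 100 = complete kill) taken 14 d after post-emergent foliar spray, relative to untreated plants. Seedlings at first/second true leaf stage; spray volume 187 L/ha; rates from highest down to 1/16× by serial dilution; subirrigation after treatment.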

SMILES | pest or weed control at 35 g/ha [%]
COC(=O)c1nc(-c2ccc3nonc3c2C)cc(N)c1Cl [Compound 17] | 60 to 74

Same assay, conditions: post-emergence, 336 h, 70 g ai/ha, 14 days, read-out: Visual Growth Reduction (%) 14 Days After Application CYPES

SMILES | pest or weed control at 70 g/ha [%]
COC(=O)c1nc(-c2ccc3nonc3c2C)cc(N)c1Cl [Compound 17] | 60 to 74

Same assay, conditions: post-emergence, 336 h, 140 g ai/ha, 14 days, read-out: Visual Growth Reduction (%) 14 Days After Application CYPES

SMILES | pest or weed control at 140 g/ha [%]
COC(=O)c1nc(-c2ccc3nonc3c2C)cc(N)c1Cl [Compound 17] | 75 to 84

Tested on: ORYSA: rice (Oryza sativa)
Assay: Post-Emergent Test II herbicidal activity
Format: in vivo
Settings: post-emergence, 336 h, 35 g ai/ha, 14 days, read-out: Visual Growth Reduction (%) 14 Days After Application ORYSA
Method in brief: as §1

SMILES | pest or weed control at 35 g/ha [%]
COC(=O)c1nc(-c2ccc3nonc3c2C)cc(N)c1Cl [Compound 17] | 0 to 29

Same assay, conditions: post-emergence, 336 h, 70 g ai/ha, 14 days, read-out: Visual Growth Reduction (%) 14 Days After Application ORYSA

SMILES | pest or weed control at 70 g/ha [%]
COC(=O)c1nc(-c2ccc3nonc3c2C)cc(N)c1Cl [Compound 17] | 0 to 29

Same assay, conditions: post-emergence, 336 h, 140 g ai/ha, 14 days, read-out: Visual Growth Reduction (%) 14 Days After Application ORYSA

SMILES | pest or weed control at 140 g/ha [%]
COC(=O)c1nc(-c2ccc3nonc3c2C)cc(N)c1Cl [Compound 17] | 0 to 29

Tested on: ZEAMX: maize, corn (Zea mays)
Assay: Post-Emergent Test II herbicidal activity
Format: in vivo
Settings: post-emergence, 336 h, 35 g ai/ha, 14 days, read-out: Visual Growth Reduction (%) 14 Days After Application ZEAMX
Method in brief: as §1

SMILES | pest or weed control at 35 g/ha [%]
COC(=O)c1nc(-c2ccc3nonc3c2C)cc(N)c1Cl [Compound 17] | 0 to 29

Same assay, conditions: post-emergence, 336 h, 70 g ai/ha, 14 days, read-out: Visual Growth Reduction (%) 14 Days After Application ZEAMX

SMILES | pest or weed control at 70 g/ha [%]
COC(=O)c1nc(-c2ccc3nonc3c2C)cc(N)c1Cl [Compound 17] | 0 to 29

Same assay, conditions: post-emergence, 336 h, 140 g ai/ha, 14 days, read-out: Visual Growth Reduction (%) 14 Days After Application ZEAMX

SMILES | pest or weed control at 140 g/ha [%]
COC(=O)c1nc(-c2ccc3nonc3c2C)cc(N)c1Cl [Compound 17] | 0 to 29

Tested on: AMARE: redroot pigweed (Amaranthus retroflexus)
Assay: Post-Emergent Test II herbicidal activity
Format: in vivo
Settings: post-emergence, 336 h, 35 g ai/ha, 14 days, read-out: Visual Growth Reduction (%) 14 Days After Application AMARE
Method in brief: as §1

SMILES | pest or weed control at 35 g/ha [%]
COC(=O)c1nc(-c2ccc3nonc3c2C)cc(N)c1Cl [Compound 17] | 95 to 100

Same assay, conditions: post-emergence, 336 h, 70 g ai/ha, 14 days, read-out: Visual Growth Reduction (%) 14 Days After Application AMARE

SMILES | pest or weed control at 70 g/ha [%]
COC(=O)c1nc(-c2ccc3nonc3c2C)cc(N)c1Cl [Compound 17] | 95 to 100

Same assay, conditions: post-emergence, 336 h, 140 g ai/ha, 14 days, read-out: Visual Growth Reduction (%) 14 Days After Application AMARE

SMILES | pest or weed control at 140 g/ha [%]
COC(=O)c1nc(-c2ccc3nonc3c2C)cc(N)c1Cl [Compound 17] | 95 to 100

Tested on: ECHCG: barnyardgrass (Echinochloa crus-galli)
Assay: Post-Emergent Test II herbicidal activity
Format: in vivo
Settings: post-emergence, 336 h, 35 g ai/ha, 14 days, read-out: Visual Growth Reduction (%) 14 Days After Application ECHCG
Method in brief: as §1

SMILES | pest or weed control at 35 g/ha [%]
COC(=O)c1nc(-c2ccc3nonc3c2C)cc(N)c1Cl [Compound 17] | 0 to 29

Same assay, conditions: post-emergence, 336 h, 70 g ai/ha, 14 days, read-out: Visual Growth Reduction (%) 14 Days After Application ECHCG

SMILES | pest or weed control at 70 g/ha [%]
COC(=O)c1nc(-c2ccc3nonc3c2C)cc(N)c1Cl [Compound 17] | 0 to 29

Same assay, conditions: post-emergence, 336 h, 140 g ai/ha, 14 days, read-out: Visual Growth Reduction (%) 14 Days After Application ECHCG

SMILES | pest or weed control at 140 g/ha [%]
COC(=O)c1nc(-c2ccc3nonc3c2C)cc(N)c1Cl [Compound 17] | 0 to 29

Tested on: TRZAS: wheat, spring (Triticum aestivum)
Assay: Post-Emergent Test II herbicidal activity
Format: in vivo
Settings: post-emergence, 336 h, 35 g ai/ha, 14 days, read-out: Visual Growth Reduction (%) 14 Days After Application TRZAS
Method in brief: as §1

SMILES | pest or weed control at 35 g/ha [%]
COC(=O)c1nc(-c2ccc3nonc3c2C)cc(N)c1Cl [Compound 17] | 0 to 29

Same assay, conditions: post-emergence, 336 h, 70 g ai/ha, 14 days, read-out: Visual Growth Reduction (%) 14 Days After Application TRZAS

SMILES | pest or weed control at 70 g/ha [%]
COC(=O)c1nc(-c2ccc3nonc3c2C)cc(N)c1Cl [Compound 17] | 0 to 29

Same assay, conditions: post-emergence, 336 h, 140 g ai/ha, 14 days, read-out: Visual Growth Reduction (%) 14 Days After Application TRZAS

SMILES | pest or weed control at 140 g/ha [%]
COC(=O)c1nc(-c2ccc3nonc3c2C)cc(N)c1Cl [Compound 17] | 30 to 44

Tested on: SETFA: giant foxtail (Setaria faberi)
Assay: Post-Emergent Test II herbicidal activity
Format: in vivo
Settings: post-emergence, 336 h, 35 g ai/ha, 14 days, read-out: Visual Growth Reduction (%) 14 Days After Application SETFA
Method in brief: as §1

SMILES | pest or weed control at 35 g/ha [%]
COC(=O)c1nc(-c2ccc3nonc3c2C)cc(N)c1Cl [Compound 17] | 0 to 29

Same assay, conditions: post-emergence, 336 h, 70 g ai/ha, 14 days, read-out: Visual Growth Reduction (%) 14 Days After Application SETFA

SMILES | pest or weed control at 70 g/ha [%]
COC(=O)c1nc(-c2ccc3nonc3c2C)cc(N)c1Cl [Compound 17] | 0 to 29

Same assay, conditions: post-emergence, 336 h, 140 g ai/ha, 14 days, read-out: Visual Growth Reduction (%) 14 Days After Application SETFA

SMILES | pest or weed control at 140 g/ha [%]
COC(=O)c1nc(-c2ccc3nonc3c2C)cc(N)c1Cl [Compound 17] | 0 to 29

Tested on: CHEAL: lambsquarters (Chenopodium album)
Assay: Post-Emergent Test II herbicidal activity
Format: in vivo
Settings: post-emergence, 336 h, 35 g ai/ha, 14 days, read-out: Visual Growth Reduction (%) 14 Days After Application CHEAL
Method in brief: as §1

SMILES | pest or weed control at 35 g/ha [%]
COC(=O)c1nc(-c2ccc3nonc3c2C)cc(N)c1Cl [Compound 17] | 85 to 94

Same assay, conditions: post-emergence, 336 h, 70 g ai/ha, 14 days, read-out: Visual Growth Reduction (%) 14 Days After Application CHEAL

SMILES | pest or weed control at 70 g/ha [%]
COC(=O)c1nc(-c2ccc3nonc3c2C)cc(N)c1Cl [Compound 17] | 95 to 100

Same assay, conditions: post-emergence, 336 h, 140 g ai/ha, 14 days, read-out: Visual Growth Reduction (%) 14 Days After Application CHEAL

SMILES | pest or weed control at 140 g/ha [%]
COC(=O)c1nc(-c2ccc3nonc3c2C)cc(N)c1Cl [Compound 17] | 95 to 100

Tested on: BRSNN: oilseed rape, canola (Brassica napus)
Assay: Post-Emergent Test II herbicidal activity
Format: in vivo
Settings: post-emergence, 336 h, 35 g ai/ha, 14 days, read-out: Visual Growth Reduction (%) 14 Days After Application BRSNN
Method in brief: as §1

SMILES | pest or weed control at 35 g/ha [%]
COC(=O)c1nc(-c2ccc3nonc3c2C)cc(N)c1Cl [Compound 17] | 60 to 74

Same assay, conditions: post-emergence, 336 h, 70 g ai/ha, 14 days, read-out: Visual Growth Reduction (%) 14 Days After Application BRSNN

SMILES | pest or weed control at 70 g/ha [%]
COC(=O)c1nc(-c2ccc3nonc3c2C)cc(N)c1Cl [Compound 17] | 75 to 84

Same assay, conditions: post-emergence, 336 h, 140 g ai/ha, 14 days, read-out: Visual Growth Reduction (%) 14 Days After Application BRSNN

SMILES | pest or weed control at 140 g/ha [%]
COC(=O)c1nc(-c2ccc3nonc3c2C)cc(N)c1Cl [Compound 17] | 85 to 94

Tested on: EPHHL: wild poinsettia (Euphorbia heterophylla)
Assay: Post-Emergent Test II herbicidal activity
Format: in vivo
Settings: post-emergence, 336 h, 35 g ai/ha, 14 days, read-out: Visual Growth Reduction (%) 14 Days After Application EPHHL
Method in brief: as §1

SMILES | pest or weed control at 35 g/ha [%]
COC(=O)c1nc(-c2ccc3nonc3c2C)cc(N)c1Cl [Compound 17] | 0 to 29

Same assay, conditions: post-emergence, 336 h, 70 g ai/ha, 14 days, read-out: Visual Growth Reduction (%) 14 Days After Application EPHHL

SMILES | pest or weed control at 70 g/ha [%]
COC(=O)c1nc(-c2ccc3nonc3c2C)cc(N)c1Cl [Compound 17] | 0 to 29

Same assay, conditions: post-emergence, 336 h, 140 g ai/ha, 14 days, read-out: Visual Growth Reduction (%) 14 Days After Application EPHHL

SMILES | pest or weed control at 140 g/ha [%]
COC(=O)c1nc(-c2ccc3nonc3c2C)cc(N)c1Cl [Compound 17] | 0 to 29

Tested on: HELAN: sunflower (Helianthus annuus)
Assay: Post-Emergent Test II herbicidal activity
Format: in vivo
Settings: post-emergence, 336 h, 35 g ai/ha, 14 days, read-out: Visual Growth Reduction (%) 14 Days After Application HELAN
Method in brief: as §1

SMILES | pest or weed control at 35 g/ha [%]
COC(=O)c1nc(-c2ccc3nonc3c2C)cc(N)c1Cl [Compound 17] | 0 to 29

Same assay, conditions: post-emergence, 336 h, 70 g ai/ha, 14 days, read-out: Visual Growth Reduction (%) 14 Days After Application HELAN

SMILES | pest or weed control at 70 g/ha [%]
COC(=O)c1nc(-c2ccc3nonc3c2C)cc(N)c1Cl [Compound 17] | 45 to 59

Same assay, conditions: post-emergence, 336 h, 140 g ai/ha, 14 days, read-out: Visual Growth Reduction (%) 14 Days After Application HELAN

SMILES | pest or weed control at 140 g/ha [%]
COC(=O)c1nc(-c2ccc3nonc3c2C)cc(N)c1Cl [Compound 17] | 60 to 74

Tested on: ABUTH: velvetleaf (Abutilon theophrasti)
Assay: Post-Emergent Test II herbicidal activity
Format: in vivo
Settings: post-emergence, 336 h, 35 g ai/ha, 14 days, read-out: Visual Growth Reduction (%) 14 Days After Application ABUTH
Method in brief: as §1

SMILES | pest or weed control at 35 g/ha [%]
COC(=O)c1nc(-c2ccc3nonc3c2C)cc(N)c1Cl [Compound 17] | 0 to 29

Same assay, conditions: post-emergence, 336 h, 70 g ai/ha, 14 days, read-out: Visual Growth Reduction (%) 14 Days After Application ABUTH

SMILES | pest or weed control at 70 g/ha [%]
COC(=O)c1nc(-c2ccc3nonc3c2C)cc(N)c1Cl [Compound 17] | 45 to 59

Same assay, conditions: post-emergence, 336 h, 140 g ai/ha, 14 days, read-out: Visual Growth Reduction (%) 14 Days After Application ABUTH

SMILES | pest or weed control at 140 g/ha [%]
COC(=O)c1nc(-c2ccc3nonc3c2C)cc(N)c1Cl [Compound 17] | 60 to 74
